From CN113004196A, “N-(苯甲氧基)-2-氯烟酰胺类化合物及其制备方法和应用” (Zhejiang University of Technology ZJUT, priority 2021, dated 2021)

Columns and labels:
[1] = system: lettuce seeds [生菜(Lettuce)种子]; test: Herbicidal activity test, seed germination inhibition in 24-well plate, lettuce; assay type: in vivo; conditions: 1 mM
[2] = system: bentgrass (Agrostis) seeds [剪股颖(Agrostis)的种子]; test: Herbicidal activity test, seed germination inhibition in 24-well plate, bentgrass; assay type: in vivo

| Compound | inhibition of lettuce seeds [1] | inhibition of germination of Agrostis seeds ([2]; 33 μM) | further results |
| --- | --- | --- | --- |
| O=C(NOCc1cnc(Cl)s1)c1cccnc1Cl [I-1] | 一定抑制作用 | 较好的抑制 | – |
| O=C(NOCc1ccc(Cl)cc1Cl)c1cccnc1Cl [I-2] | 一定抑制作用 | – | – |
| O=C(NOCc1ccc(Br)cc1)c1cccnc1Cl [I-5] | 一定抑制作用 | – | – |
| CC(C)(C)c1ccc(CONC(=O)c2cccnc2Cl)cc1 [I-8] | – | 较好的抑制 | inhibition of germination of Agrostis seeds ([2]; 10 μM): 较好的抑制 |
| O=C(NOCc1ccccc1Br)c1cccnc1Cl [I-10] | – | 较好的抑制 | – |
| O=C(NOCc1ccccc1Cl)c1cccnc1Cl [I-14] | – | – | inhibition of germination of Agrostis seeds ([2]; 333 μM): 完全抑制 |
